ChEMBL document CHEMBL5126544, “Recent results from non-basic glycosidase inhibitors: How structural diversity can inform general strategies for improving inhibition potency” (Eur J Med Chem, 2022)

Legend:
[1] = Inhibition of saccharomyces cerevisiae alpha-glucosidase using pNPG as substrate preincubated for 15 mins followed by substrate addition
[2] = Inhibition of baker's yeast alpha-glucosidase using p-nitrophenyl-alpha-glucopyranoside as substrate by spectrophotometric analysis; design: species or system Saccharomyces cerevisiae
[3] = Inhibition of saccharomyces cerevisiae alpha-glucosidase using p-nitrophenyl-alpha-D-glucopyranoside as substrate preincubated for 15 mins followed by substrate addition and measured after 20 mins by spectrophotometric analysis
[4] = Inhibition of saccharomyces cerevisiae alpha-glucosidase using PNPG as substrate preincubated for 2 mins followed by substrate addition for 15 mins by microplate reader analysis
[5] = Inhibition of alpha-glucosidase (unknown origin) using PNP glycoside as substrate preincubated for 30 mins followed by substrate addition and measured after 60 mins by spectrophotometric analysis
[6] = Cytotoxicity against MDCK cells; type: toxicity, cell-based, Canis lupus familiaris; conditions: dog
[7] = Inhibition of almond beta-glucosidase using PNPG as substrate preincubated for 10 mins followed by substrate addition and measured after 20 mins by spectrophotometric analysis; design: species or system Prunus dulcis
[8] = Inhibition of baker's yeast alpha-glucosidase using PNPG as substrate preincubated for 10 mins followed by substrate addition and measured after 30 mins by microplate reader analysis; design: species or system Saccharomyces cerevisiae
[9] = Inhibition of alpha-glucosidase (unknown origin) using p-nitrophenyl-alpha-D-glucopyranoside as substrate preincubated for 10 mins followed by substrate addition and measured after 30 mins
[10] = Inhibition of Bacillus stearothermophilus alpha-glucosidase using PNP-G as substrate incubated for 20 mins; design: species or system Geobacillus stearothermophilus
[11] = Inhibition of saccharomyces cerevisiae alpha-glucosidase using PNP-G as substrate incubated for 20 mins
[12] = Inhibition of yeast alpha-glucosidase; design: species or system Saccharomyces cerevisiae
[13] = Inhibition of baker's yeast alpha-glucosidase using PNP-G as substrate preincubated for 10 mins followed by substrate addition and measured after 20 mins; design: species or system Saccharomyces cerevisiae
[14] = Inhibition of rat intestinal sucrase using sucrose as substrate incubated for 15 mins by spectometric analysis
[15] = Inhibition of rat intestinal maltase using maltose as substrate incubated for 15 mins by spectometric analysis
[16] = Inhibition of Bacillus stearothermophilus alpha-glucosidase type IV using p-nitrophenyl-alpha-D-glucopyranoside as substrate preincubated for 15 mins followed by substrate addition and measured after 35 mins by microtiter plate reader analysis; design: species or system Geobacillus stearothermophilus
[17] = Inhibition of beta glucosidase (unknown origin); design: species or system Homo sapiens
Homo sapiens = organism: Homo sapiens; assay: Potency index, ratio of acarbose IC50 to test compound IC50 for inhibition of alpha-glucosidase (unknown origin) using PNP glycoside as substrate preincubated for 30 mins followed by substrate addition and measured after 60 mins by spectrophotometric analysis; conditions: time 90.0 min
[18] = Inhibition of alpha-amyloglucosidase (unknown origin) assessed as reduction in conversion of starch to glucose using starch as substrate preincubated with substrate for 20 mins followed by enzyme addition and measured after 30 mins
[19] = Inhibition of Caldocellum-saccharolyticum […] using 4-nitrophenyl beta-d-glucopyranoside preincubated for 30 to 60 mins followed by substrate addition; design: species or system Caldicellulosiruptor saccharolyticus
Rattus norvegicus = assay: Hypoglycemic activity in Wistar rat assessed as reduction in postprandial blood glucose level at 10 mg/kg, po administered for 10 mins followed by sucrose challenge and measured after 30 mins post oral sucrose challenge; type: functional; design: scale not given: the % may be the effect or the level left; conditions: time 40 min
[20] = Inhibition of saccharomyces cerevisiae alpha-glucosidase using PNP-G as substrate by spectrophotometric analysis
[21] = Inhibition of recombinant Streptococcus pneumoniae NanB using MUNANA as substrate
Alpha amylase = molecular target: T1, Alpha amylase (Homo sapiens, UniProt P0DUB6); assay: Inhibition of human salivary alpha-amylase using starch as substrate preincubated for 5 mins followed by substrate addition for 8 mins and incubated with iodide potassium for another 5 mins; design: species or system Saliva
T1 sequence (P0DUB6 whole entry): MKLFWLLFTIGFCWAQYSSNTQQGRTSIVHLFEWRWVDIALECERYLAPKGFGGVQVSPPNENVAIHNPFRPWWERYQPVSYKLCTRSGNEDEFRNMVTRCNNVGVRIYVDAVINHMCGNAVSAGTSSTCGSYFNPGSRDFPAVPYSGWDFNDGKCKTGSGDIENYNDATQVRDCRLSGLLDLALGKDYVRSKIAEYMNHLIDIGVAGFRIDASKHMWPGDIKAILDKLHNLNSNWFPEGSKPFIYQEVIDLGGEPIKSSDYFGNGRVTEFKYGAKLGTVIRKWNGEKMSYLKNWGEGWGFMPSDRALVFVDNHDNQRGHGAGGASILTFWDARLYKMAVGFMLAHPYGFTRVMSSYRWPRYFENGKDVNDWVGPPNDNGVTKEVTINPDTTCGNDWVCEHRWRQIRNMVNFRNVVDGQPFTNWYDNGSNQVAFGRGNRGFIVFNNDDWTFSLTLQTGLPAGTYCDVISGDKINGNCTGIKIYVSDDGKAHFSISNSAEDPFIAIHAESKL

[22] = Inhibition of rat intestinal maltase
[23] = Inhibition of human alpha-fucosidase
Saccharomyces cerevisiae = assay: Inhibition of baker's yeast alpha-glucosidase at 1 uM using p-nitrophenyl-alpha-D-glucopyranoside as substrate preincubated for 30 mins followed by substrate addition and measured after 5 mins relative to control; conditions: time 35.0 min

Cc1cccc2nc(-c3ccccc3Cl)[nH]c12
IC50 [1]: 5 µM

CC(=O)NC[C@H]1N[C@H](CO)[C@@H](O)[C@@H]1O
IC50 [2]: 280 µM

O=[N+]([O-])c1ccc2nc(Cc3ccc(Cl)cc3Cl)n(Cc3nnc(S)n3-c3ccccc3)c2c1
IC50 [3]: 40 µM

C/C=C(\C)C(=O)NCCc1ccc(OCC=C(C)C)cc1
IC50 [4]: 195 µM

CCCCOc1ccc(-c2nc3ccc(Br)cc3[nH]2)cc1
IC50 [5]: 25 µM

COc1cc2ccc(=O)oc2cc1O [SCOPOLETIN]
IC50 [4]: 4.6 µM

C/C=C/Oc1cc(C=O)ccc1O
IC50 [6]: > 600 µM

O[C@@H]1[C@H](O)Cn2c(nc3ccccc32)[C@@H]1O
IC50 [7]: 5 µM

COc1ccc(/C=N/NC(=O)c2ccc(-c3nc4cc(C)c(C)cc4[nH]3)cc2)c(O)c1
IC50 [8]: 8 µM

O=[N+]([O-])c1ccc2nc(Cc3ccc(Cl)cc3Cl)n(Cc3nnc(S)o3)c2c1
IC50 [3]: 27 µM

Cc1cc2nc(-c3ccc(C(=O)N/N=C/c4cc(O)ccc4O)cc3)[nH]c2cc1C
IC50 [8]: 8 µM

O=C1c2c(Cl)c(Cl)c(Cl)c(Cl)c2C(=O)N1CCCc1ccccc1
IC50 [9]: 4.5 µM

CCCCCCC1(CCCCCC)O[C@H]2Cc3c(O)cc(O)cc3O[C@@H]2c2cc(O)c(O)cc21
IC50 [10]: 1.1 µM
IC50 [11]: 0.9 µM

O=c1c(-c2ccc(O)cc2)coc2cc(O)cc(O)c12 [GENISTEIN]
IC50 [12]: 10.4 µM

CCOC(=O)/C=C/c1ccc(OC)cc1 [4-METHOXY ETHYL CINNAMATE]
IC50 [13]: 50 µM

Oc1cc(O)c2c(c1)O[C@H](c1ccc(O)c(O)c1)[C@@H](O)C2 [CIANIDANOL]
IC50 [14]: 2490 µM
IC50 [15]: 1350 µM

CCCCC1(CCCC)O[C@H]2Cc3c(O)cc(O)cc3O[C@@H]2c2cc(O)c(O)cc21
IC50 [11]: 2.1 µM

Oc1cc(O)cc(/C=C/c2ccc(O)c(O)c2)c1 [PICEATANNOL]
IC50 [16]: 23 µM

O[C@H]1[C@@H](O)Cn2cc(CCc3ccccc3)nc2[C@@H]1O
Ki [17]: 0.004 µM

Cc1cc2nc(-c3ccc(C(=O)N/N=C/c4ccc(O)c(O)c4)cc3)[nH]c2cc1C
IC50 [8]: 12 µM

Oc1ccc(-c2nc3ccc(Br)cc3[nH]2)cc1
Ratio IC50 (Homo sapiens): 5
IC50 [5]: 8 µM

CC1(C)O[C@H]2Cc3c(O)cc(O)cc3O[C@@H]2c2cc(O)c(O)cc21
IC50 [10]: 0.7 µM
IC50 [11]: 1.2 µM

Oc1ccc(/C=C/c2cc(O)cc(O)c2)cc1 [RESVERATROL]
IC50 [16]: 24 µM

O=C1NC(=O)C(Cc2ccc(Nc3nc4ccccc4n3Cc3ccccc3)cc2)S1 (configuration not stated)
IC50 [18]: 4 µM

Oc1cc(O)cc(/C=C/c2cc(O)c(O)c3c2[C@H](c2cc(O)cc(O)c2)[C@@H](c2cc(O)c(O)c(O)c2)O3)c1
IC50 [16]: 4.9 µM

C/C(=C\O)[C@@H]1OC(=O)[C@H]2O[C@@]23[C@@]1(C)CC[C@@H]1[C@@]2(CCC(=O)[C@]13C)COC(=O)C[C@@H]2O
IC50 [4]: 102 µM

OC[C@@H]1[C@@H](O)[C@H](O)[C@@H](O)c2nccn21
Ki [19]: 0.02 µM

COc1ccc(O)cc1/C=N/NC(=O)c1ccc(-c2nc3cc(C)c(C)cc3[nH]2)cc1
IC50 [8]: 8 µM

COc1ccc(-c2nc3cccc(C)c3[nH]2)c(O)c1
IC50 [1]: 30 µM

O=C1c2c(Cl)c(Cl)c(Cl)c(Cl)c2C(=O)N1CCCCCCc1ccccc1
IC50 [9]: 7 µM

O=C1c2c(Cl)c(Cl)c(Cl)c(Cl)c2C(=O)N1CCCCCc1ccccc1
IC50 [9]: 3.5 µM

COc1ccc(-c2nc3ccc(Br)cc3[nH]2)c(O)c1
IC50 [5]: 38 µM

Cn1c(Nc2ccc(CC3SC(=O)NC3=O)cc2)nc2ccccc21 (configuration not stated)
IC50 [18]: 9 µM

Cc1cc2nc(-c3ccc(C(=O)N/N=C/c4ccc(O)cc4O)cc3)[nH]c2cc1C
IC50 [8]: 8 µM

O=C(NC[C@H]1N[C@H](CO)[C@@H](O)[C@@H]1O)C1Cc2ccccc21 (some centres not stated)
IC50 [2]: 0.15 µM
Ki [2]: 0.053 µM

COc1cc([C@@H]2c3c(O)cc(O)cc3[C@@H]3[C@H]2CO[C@H]3c2ccc(O)c(O)c2)cc(OC)c1O
IC50 [16]: 11 µM
Activity (Rattus norvegicus): 10.2%

Cc1cc2nc(-c3ccc(C(=O)N/N=C/c4cccc(O)c4O)cc3)[nH]c2cc1C
IC50 [8]: 8 µM

OC[C@H]1OC(O)[C@H](O)[C@@H](O)[C@@H]1O (some centres not stated) [DEXTROSE]
IC50 [12]: 2.6 µM

COc1ccc(-c2oc3cc(O[C@H]4O[C@H](CO)[C@@H](O)[C@H](O)[C@H]4O)c(OC)c(O)c3c(=O)c2O)cc1CCC(C)COC(C)=O (some centres not stated)
IC50 [20]: 66 µM

Cn1c(NCc2ccc(CC3SC(=O)NC3=O)cc2)nc2ccccc21 (configuration not stated)
IC50 [18]: 9 µM

O=S(=O)(O)CCNCc1cccc(Cl)c1
IC50 [21]: 39 µM

Oc1cc(O)cc(/C=C/c2cc(O)c(O)c(O)c2)c1
IC50 [16]: 19 µM
Activity (Rattus norvegicus): 12.1%

Brc1cccc(-c2nc3ccc(Br)cc3[nH]2)c1
IC50 [5]: 21 µM

COc1cc([C@@H]2c3c(O)cc(O)cc3[C@@H]3[C@H]2CO[C@H]3c2cc(O)c(O)c(O)c2)cc(OC)c1O
IC50 [16]: 6.5 µM

O=C1NC(=O)C(Cc2ccc(CNc3nc4ccccc4n3Cc3ccccc3)cc2)S1 (configuration not stated)
IC50 [18]: 5 µM

COC(=O)/C=C/c1ccc(OCC=C(C)C)c(OC)c1
IC50 [4]: 98 µM

Cc1cccc2nc(-c3ccccc3[N+](=O)[O-])[nH]c12
IC50 [1]: 45 µM

COC(=O)/C=C/c1ccc(OC/C=C(\C)CO)cc1
IC50 (Alpha amylase): 600 µM

OC[C@@H]1[C@@H](O)[C@H](O)C[S@@+]1C[C@@H](O)[C@@H](O)CO
IC50 [22]: 1.6 µM

COc1ccc(/C=C/C(=O)O)cc1 [4-METHOXYCINNAMIC ACID]
IC50 [13]: 44 µM

O=C1c2c(Cl)c(Cl)c(Cl)c(Cl)c2C(=O)N1CCc1ccccc1
IC50 [9]: 6 µM

O=C1c2c(Cl)c(Cl)c(Cl)c(Cl)c2C(=O)N1Cc1ccccc1
IC50 [9]: 11 µM

Cc1cccc2nc(-c3ccc(O)c(O)c3)[nH]c12
IC50 [1]: 25 µM

Oc1ccccc1-c1nc2ccc(Br)cc2[nH]1
IC50 [5]: 38 µM

CC(=O)NC[C@H]1N[C@@H](C)[C@@H](O)[C@@H](O)[C@@H]1O
Ki [23]: 0.00447 µM

C[C@H]1O[C@H](O[C@H]2[C@H](O)[C@@H](O)[C@@H](O[C@H]3[C@H](O)[C@@H](O)C(O)O[C@@H]3CO)O[C@@H]2CO)[C@H](O)[C@@H](O)[C@@H]1N[C@H]1C=C(CO)[C@@H](O)[C@H](O)[C@H]1O (some centres not stated) [ACARBOSE]
inhibition (Saccharomyces cerevisiae): 56.5%
IC50 [18]: 15 µM
IC50 [5]: 38 µM

Cc1cccc(CNCCS(=O)(=O)O)c1
IC50 [21]: 57 µM

Oc1ccc(/C=C/c2cc(O)cc3c2[C@H](c2cc(O)cc(O)c2)[C@@H](c2ccc(O)c(O)c2)O3)cc1 [SCIRPUSIN A]
IC50 [16]: 8.3 µM

O=C1c2c(Cl)c(Cl)c(Cl)c(Cl)c2C(=O)N1CCCCc1ccccc1
IC50 [9]: 2 µM

Cc1cccc2nc(-c3ccccc3O)[nH]c12
IC50 [1]: 16 µM

OC[C@@H]1[C@@H](O)[C@H](O)[C@@H](O)c2nc(CCc3ccccc3)cn21
Ki [19]: 0.00011 µM

NNC(=O)Cn1c(Cc2ccc(Cl)cc2Cl)nc2ccc([N+](=O)[O-])cc21
IC50 [3]: 10 µM

O[C@H]1[C@@H](O)Cn2ccnc2[C@@H]1O
Ki [17]: 0.001 µM

Cc1cc2nc(-c3ccc(C(=O)N/N=C/c4cc(O)c(O)c(O)c4)cc3)[nH]c2cc1C
IC50 [8]: 8 µM

Cc1cccc2nc(-c3ccccc3F)[nH]c12
IC50 [1]: 34 µM

C[C@@H]1N[C@H](CNC(=O)CCc2c[nH]c3ccccc23)[C@@H](O)[C@H](O)[C@@H]1O
Ki [23]: 0.000105 µM

O=[N+]([O-])c1ccccc1CO[C@@H](CO)[C@H](O)C[S+]1C[C@@H](O)[C@H](O)[C@H]1CO (single isomer, unassigned)
IC50 [22]: 0.042 µM

COc1ccc(O)c(-c2nc3cccc(C)c3[nH]2)c1
IC50 [1]: 45 µM
